Values after ≈ are worked out from the molar mass of the structure shown.
Test system: Staphylococcus aureus
Assay: Antibacterial activity against multidrug-resistant Staphylococcus aureus 1199B overexpressing NorA after 18 hrs
Format: functional

Compound: CCn1cc(C(=O)O)c(=O)c2cc(F)c(N3CCNCC3)cc21 [NORFLOXACIN]
- MIC: 100 µM (≈ 31.9 µg/mL)

Compound: CC(C)=CC[C@H]1C[C@]2(CC=C(C)C)C(=O)C(C(=O)c3ccccc3)=C(O)[C@](CC=C(C)C)(C2=O)C1(C)C
- MIC: 7.3 µM (≈ 3.67 µg/mL)
